Experimental data as given in patent US20250170132A1, “SALTS AND POLYMORPHIC FORMS OF MENIN INHIBITORS AND PHARMACEUTICAL COMPOSITIONS THEREOF” (Syndax Pharmaceuticals, Inc., priority 2023, published 2025).

Key:
Type in all cases: physicochemical
[1] = Form C screening experiments
[2] = Scale-up preparation of Form C with DVS
Description: Approximately 300 mg of Form A was weighed into a 4 mL glass vial and 2.5 mL of MeCN was added slowly to make a slurry. The sample vial was kept at 50° C. with stirring for 3 days. After 3 days, slurry material was isolated and dried at 40° C. with a N2 bleed.

[3] = Excipient compatibility study with Compound A sesquifumarate; settings: for Change in appearance, XRPD or DSC: 8 weeks 25° C./60% RH or 4 weeks 40° C./75% RH
Excerpt: The first activity in developing a tablet formulation was selection of excipients. The main purpose of the excipient compatibility study was to evaluate changes in related substances, specifically Impurity A (relative retention time [RRT]˜0.98). […] However, formation of this degradant is not possible in product containing Compound A citrate, as it is formed by reaction of the sesquifumarate drug substance with the double bond in fumaric acid. A secondary purpose of the compatibility study was to assess changes in Compound A assay and physical properties. Even though formation of Impurity A is not possible for Compound A citrate, chemical and physical results of this study were still used to guide tablet excipient selection.
Common excipients were evaluated as part of the excipient compatibility study. Samples were incubated at 25° C./60% RH long-term condition as well as a 40° C./75% RH accelerated condition. Individual vials were removed for analysis at 0, 4, and 8 weeks. Samples were tested for appearance, Compound A sesquifumarate assay and related substances, X-ray powder diffraction (XRPD), and differential scanning calorimetry (DSC) at T-0 and 4 weeks for both long-term and accelerated conditions, and 8 weeks for the long-term condition. At 8 weeks, the accelerated condition samples were tested for Compound A sesquifumarate assay and related substances only. Assay and related substances were tested by reversed-phase ultra-performance liquid chromatography (RP-UPLC), with adjusted sample preparation to accommodate small sample amounts. Vials of Compound A sesquifumarate alone were used as controls.

[4] = Solution stability of Compound A sesquifumarate at 25° C. and 40° C.; settings: for Appearance / Compound A Sesquifumarate Purity (Average % area) / Impurity A (Average % area) / pH: 50 mg/mL formulation
Description: The initial F1 and F2 formulations utilized Compound A sesquifumarate. The pH stability of Compound A sesquifumarate solutions was studied in water at pH 5.0, 5.5, and 6.0 over 4 weeks at 25° C. and 40° C. The desired concentration of 50 mg/mL was soluble at all pH values, although Compound A dissolution occurred more rapidly at lower pH. There was a single major degradant, designated as Impurity A (relative retention time [RRT]˜0.98).
Stability of formulations containing Compound A sesquifumarate was studied at 50 mg/mL in a formulation consisting of 0.07% advantame, 20 mM citrate, 1% grape flavor (FONA), 1% sodium chloride, and 0.02% propyl paraben at pH 6.5. Stability was measured over 4 weeks in glass vials at the accelerated condition of 25° C. Stability of the same formulation but at […] was also studied at the supra-accelerated condition of 40° C. These studies were conducted prior to preservative effectiveness testing and therefore used propyl paraben instead of the methylparaben sodium:potassium sorbate combination used in the final formulation.

[5] = Aqueous solubility of Compound A salts
Description: Solubility of Compound A citrate was determined in 3 different types of matrices: unbuffered water, citrate-buffered solutions from pH 3 to 6, and formulations consisting of citrate, advantame, methylparaben sodium, potassium sorbate, and sodium chloride at pH ranging from 3 to 6. Solubility in unbuffered water at ambient temperature was 38.5 mg/mL.
The target pH was reassessed when the F3 formulation was developed. Compound A citrate solubility studies were performed initially in simple buffered solutions to assess solubility trends as a function of pH. […] The target concentration of Compound A was therefore changed to 40 mg/mL as a compromise between drug substance and preservatives dissolution rate and stability.

[6] = Solution stability studies at accelerated conditions, counterion adduct (Impurity A); settings: fumarate reacts with the pyrimidine ring; in solution and solid API
Excerpt: Compound A monocitrate monohydrate has at least two advantageously and unexpected characteristics. […] Second, in the manufacturing process, Compound A fumarate requires a separate slurrying step which results in a solvate with an organic solvent. Compound A monocitrate monohydrate salt is isolated directly from ethanol:water, no slurrying step is required. […] Additionally, the Compound A monocitrate forms a monohydrate instead of a solvate with one or more organic molecules.
Although this degradation pathway is more accelerated in solution it was also observed in the solid API. Formation of Impurity A was the reason why Compound A sesquifumarate API and drug product were stored at refrigerated temperatures.

[7] = Exp. 1/5: reactive crystallization, material 166 mg, citric acid 51 mg, MeCN 1.0 mL, RT
[8] = Exp. 2/6: reactive crystallization, material 166 mg, citric acid 51 mg, EtOAc 1.0 mL, RT
[9] = Exp. 3/7: reactive crystallization, material 166 mg, citric acid 51 mg, MeCN 1.0 mL, 50 °C
[10] = Exp. 4/8: reactive crystallization, material 166 mg, citric acid 51 mg, EtOAc 1.0 mL, 50 °C

SMILES: CCN(C(=O)c1cc(F)ccc1Oc1cncnc1N1CC2(CCN(C[C@H]3CC[C@H](NS(=O)(=O)CC)CC3)CC2)C1)C(C)C [FB-1]
- Crystal Form [1, 7]: Form A, w/pattern shift
- Crystal Form [1, 8]: FB-1 w/extra peaks
- Crystal Form [1, 9]: Form A → Form C
- Crystal Form [1, 10]: Essentially Form C
- Crystal Form ([1]; Exp. 11: slurry conditioning, 166 mg, no citric acid, MeCN 1.0 mL, 50 °C): FB-1
- Crystal Form ([1]; Exp. 12: slurry conditioning, 166 mg, no citric acid, EtOAc 1.0 mL, 50 °C): FB-1

SMILES: CCN(C(=O)c1cc(F)ccc1Oc1cncnc1N1CC2(CCN(C[C@H]3CC[C@H](NS(=O)(=O)CC)CC3)CC2)C1)C(C)C [FB-2]
- Crystal Form [1, 7]: Form A, w/pattern shift
- Crystal Form [1, 8]: FB-2 w/extra peaks
- Crystal Form [1, 9]: Form A → Form C
- Crystal Form [1, 10]: Form A
- Crystal Form ([1]; Exp. 9: slurry conditioning, 166 mg, no citric acid, MeCN 1.0 mL, RT): FB-2
- Crystal Form ([1]; Exp. 10: slurry conditioning, 166 mg, no citric acid, EtOAc 1.0 mL, RT): FB-2
- Crystal Form ([1]; Exp. 13: reactive crystallization, citric acid 15 mg, MeCN 0.5 mL, RT (Form C in MeCN; Hazy → FB + Acid)): Form C
- Crystal Form ([1]; Exp. 14: reactive crystallization, citric acid 15 mg, MeCN 0.5 mL, RT (FB + Acid in MeCN → CL → Form C)): Form C
- Crystal Form ([1]; Exp. 15: citric acid 30 mg, MeCN 0.5 + 1.5 mL, RT, 1:2 of FB:Acid): Form C

SMILES: CC#N.CCN(C(=O)c1cc(F)ccc1Oc1cncnc1N1CC2(CCN(CC3CCC(NS(=O)(=O)CC)CC3)CC2)C1)C(C)C.O=C(O)CC(O)(CC(=O)O)C(=O)O (stereo not shown) [Compound A citrate Form C]
- DVS (weight gain between 30%-80% RH) ([2]; 1st adsorption cycle): 1.6%
- DVS (weight gain between 30%-80% RH) ([2]; 2nd adsorption cycle): 6.1%
- Post DVS form ([2]; after DVS): changed to Form-A

SMILES: CCN(C(=O)c1cc(F)ccc1Oc1cncnc1N1CC2(CCN(C[C@H]3CC[C@H](NS(=O)(=O)CC)CC3)CC2)C1)C(C)C.CCN(C(=O)c1cc(F)ccc1Oc1cncnc1N1CC2(CCN(C[C@H]3CC[C@H](NS(=O)(=O)CC)CC3)CC2)C1)C(C)C.O=C(O)/C=C/C(=O)O.O=C(O)/C=C/C(=O)O.O=C(O)/C=C/C(=O)O [Compound A sesquifumarate]
- Change in appearance, XRPD or DSC ([3]; binary mixtures with five fillers): No change
- Impurity A ([3]; control sample and filler mixtures): increased in both control sample and excipient mixtures
- Trends in assay or related substances ([3]; four disintegrants): No trends
- Change in appearance, XRPD or DSC ([3]; four disintegrants): No change
- Trends in assay or related substances ([3]; glidant and lubricants): No trends
- Change in appearance, XRPD or DSC ([3]; glidant and lubricants): No change
- Trends in assay or related substances ([3]; three binders): No trends
- Change in appearance, XRPD or DSC ([3]; three binders): No change
- Trends in assay or related substances ([3]; two alkalizers): No trends
- Change in appearance, XRPD or DSC ([3]; two alkalizers): No change
- Impurity A formation ([3]; with Avicel PH 101, Avicel PH113, Avicel DG): did not increase formation of Impurity A
- Impurity A formation ([3]; with polyols mannitol and sorbitol): accelerate the degradant formation
- Appearance ([4]; 25° C., 1 week): Clear
- Compound A Sesquifumarate Purity (Average % area) ([4]; 25° C., 1 week): 99.77 % area
- Impurity A (Average % area) ([4]; 25° C., 1 week): 0.14 % area
- pH ([4]; 25° C., 1 week): 6.6
- Appearance ([4]; 25° C., 2 weeks): Clear
- Compound A Sesquifumarate Purity (Average % area) ([4]; 25° C., 2 weeks): 99.78 % area
- Impurity A (Average % area) ([4]; 25° C., 2 weeks): 0.13 % area
- pH ([4]; 25° C., 2 weeks): 6.6
- Appearance ([4]; 25° C., 4 weeks): Clear
- Compound A Sesquifumarate Purity (Average % area) ([4]; 25° C., 4 weeks): 99.78 % area
- Impurity A (Average % area) ([4]; 25° C., 4 weeks): 0.14 % area
- pH ([4]; 25° C., 4 weeks): 6.6
- Appearance ([4]; 25° C., time 0): Clear
- Compound A Sesquifumarate Purity (Average % area) ([4]; 25° C., time 0): 99.78 % area
- Impurity A (Average % area) ([4]; 25° C., time 0): 0.14 % area
- pH ([4]; 25° C., time 0): 6.5
- Appearance ([4]; 40° C., 1 week): Clear
- Compound A Sesquifumarate Purity (Average % area) ([4]; 40° C., 1 week): 99.75 % area
- Impurity A (Average % area) ([4]; 40° C., 1 week): 0.17 % area
- pH ([4]; 40° C., 1 week): 6.2
- Appearance ([4]; 40° C., 2 weeks): Clear
- Compound A Sesquifumarate Purity (Average % area) ([4]; 40° C., 2 weeks): 99.68 % area
- Impurity A (Average % area) ([4]; 40° C., 2 weeks): 0.24 % area
- pH ([4]; 40° C., 2 weeks): 6.2
- Appearance ([4]; 40° C., 4 weeks): Clear
- Compound A Sesquifumarate Purity (Average % area) ([4]; 40° C., 4 weeks): 99.58 % area
- Impurity A (Average % area) ([4]; 40° C., 4 weeks): 0.34 % area
- pH ([4]; 40° C., 4 weeks): 6.3
- Appearance ([4]; 40° C., time 0): Clear
- Compound A Sesquifumarate Purity (Average % area) ([4]; 40° C., time 0): 99.77 % area
- Impurity A (Average % area) ([4]; 40° C., time 0): 0.14 % area
- pH ([4]; 40° C., time 0): 6.2
- Impurity A formation ([4]; water at pH 5.0, 5.5, 6.0, 4 weeks, 25° C. and 40° C.): increased in a temperature- and time-dependent manner
- solubility ([4]; water at pH 5.0, 5.5 and 6.0): ≥ 50 mg/mL
- Biopharmaceutical Classification System solubility definition [5]: highly soluble
- pH of solution ([5]; 50 mg/mL Compound A solution in water): approximately 3.5
- Chemical degradation forming impurity A [6]: subject to a chemical degradation
